The source of these data is patent publication US20020162794A1, “Anaerobic digestion” (priority 2001, published 2002).

SMILES strings stand for the structures.

The subject of data set [1] is anaerobic mixed culture (domestic sewage). As to the kind of experiment: Anaerobic digestion of domestic sewage, overall effect of formate salt concentration. The note with it: for effect on anaerobic digestion over the tested concentration range: 10 mg/L to 100,000 mg/L based on the organic matter available for digestion. As to the method:
The various formate salts include, but are not limited to sodium formate (NaHCOO), potassium formate (KHCOO), ammonium formate (NH4COO), calcium formate (Ca(HCOO)2), and others either singly or in combination. These formate salts have been tested for concentrations ranging from 10 mg/L (˜10 ppm) to as high as […] (100,000 mg/L) based on the organic matter available for digestion.
Two tests were run in which sodium formate in concentrations ranging from a few parts per million (ppm) up to ten percent (10%) on a mass basis were added to samples taken from a publicly owned anaerobic digester. The samples were first cultured in laboratory sized batch reactors. The twelve batch reactors were then sampled, and studied for periods of up to fifty-five days. The process variables that were monitored included COD (Chemical Oxygen Demand), TS (Total Solids), TVS (Total Volatile Solids) and the pH of the culture. Time and the initial sodium formate concentration level were the independent variables. Finally measurements were also made of the bacterial counts at the beginning and at the end of the fifty five day period.
Municipal sludge from the city of Lubbock, Wastewater Treatment Plant was digested in 12 batch digesters. Using twelve batch reactors allowed the collection of control reactors data (i.e., no formate in the reactors) in triplicate, titration studies of increasing formate concentration, and duplicates/triplicates of varying formate concentration. Experiments were conducted in the laboratories of Texas Tech University.

For data set [2], the system named is microorganisms in domestic sewage. The note with it: sodium chloride spike; cited from earlier work.

For the molecule `N.O=CO` [ammonium formate], the “effect on anaerobic digestion over the tested concentration range” value in data set [1] is recorded as “initiate the inhibition of digestion at concentrations above a few thousand mg/L”. Turning to `[Cl-].[Na+]` [sodium chloride], the “toxicity of sodium levels” value in data set [2] is “toxic to all microorganisms in domestic sewage at levels above three to four percent”.

In the case of `O=C[O-].[K+]` [potassium formate], the “effect on anaerobic digestion over the tested concentration range” value in data set [1] was “beneficial at all concentration levels”. The “concentration range of greatest effects” value in data set [1] (10 mg/L to 100,000 mg/L tested) is on record as “greatest effects being observed over the 100 ppm to the 2,000-mg/L range”.
